According to the supplement of paper PMC11451515:

Tested on: SEM cells
Experiment: cell viability relative to DMSO control; higher = less cytotoxic
Conditions: 48 h
How it was run: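 Viability values are per-plate percentages of DMSO wells, with background from cell-free wells. Library compounds in DMSO were pin-dosed, in an 11-point threefold series from 47 μM to 0.79 nM, onto NOMO1 or SEM (500 cells/well) or P12-Ichikawa (1000 cells/well) leukemia cells in 1536-well plates (5 μl). Those cells had been adapted for at least four passages in each medium, and CellTiter-Glo One luminescence was read after 48 h at 37°C.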

[1] = HPLM + 10% dialyzed FBS, 0.000781 µM
[2] = HPLM + 10% dialyzed FBS, 0.00234 µM
[3] = HPLM + 10% dialyzed FBS, 0.00702 µM
[4] = HPLM + 10% dialyzed FBS, 0.0211 µM
[5] = HPLM + 10% dialyzed FBS, 0.0632 µM
[6] = HPLM + 10% dialyzed FBS, 0.19 µM
[7] = HPLM + 10% dialyzed FBS, 0.569 µM
[8] = HPLM + 10% dialyzed FBS, 1.71 µM
[9] = HPLM + 10% dialyzed FBS, 5.12 µM
[10] = HPLM + 10% dialyzed FBS, 15.4 µM
[11] = HPLM + 10% dialyzed FBS, 46.1 µM
[12] = RPMI 5 mM glucose + 10% FBS, 0.000781 µM
[13] = RPMI 5 mM glucose + 10% FBS, 0.00234 µM
[14] = RPMI 5 mM glucose + 10% FBS, 0.00702 µM
[15] = RPMI 5 mM glucose + 10% FBS, 0.0211 µM
[16] = RPMI 5 mM glucose + 10% FBS, 0.0632 µM
[17] = RPMI 5 mM glucose + 10% FBS, 0.19 µM
[18] = RPMI 5 mM glucose + 10% FBS, 0.569 µM
[19] = RPMI 5 mM glucose + 10% FBS, 1.71 µM
[20] = RPMI 5 mM glucose + 10% FBS, 5.12 µM
[21] = RPMI 5 mM glucose + 10% FBS, 15.4 µM
[22] = RPMI 5 mM glucose + 10% FBS, 46.1 µM
[23] = RPMI 5 mM glucose + 10% dialyzed FBS, 0.000781 µM
[24] = RPMI 5 mM glucose + 10% dialyzed FBS, 0.00234 µM
[25] = RPMI 5 mM glucose + 10% dialyzed FBS, 0.00702 µM
[26] = RPMI 5 mM glucose + 10% dialyzed FBS, 0.0211 µM
[27] = RPMI 5 mM glucose + 10% dialyzed FBS, 0.0632 µM
[28] = RPMI 5 mM glucose + 10% dialyzed FBS, 0.19 µM
[29] = RPMI 5 mM glucose + 10% dialyzed FBS, 0.569 µM
[30] = RPMI 5 mM glucose + 10% dialyzed FBS, 1.71 µM
[31] = RPMI 5 mM glucose + 10% dialyzed FBS, 5.12 µM
[32] = RPMI 5 mM glucose + 10% dialyzed FBS, 15.4 µM
[33] = RPMI 5 mM glucose + 10% dialyzed FBS, 46.1 µM

Row | Compound | cell viability [1] [%] | cell viability [2] [%] | cell viability [3] [%] | cell viability [4] [%] | cell viability [5] [%] | cell viability [6] [%] | cell viability [7] [%] | cell viability [8] [%] | cell viability [9] [%] | cell viability [10] [%] | cell viability [11] [%] | cell viability [12] [%] | cell viability [13] [%] | cell viability [14] [%] | cell viability [15] [%] | cell viability [16] [%] | cell viability [17] [%] | cell viability [18] [%] | cell viability [19] [%] | cell viability [20] [%] | cell viability [21] [%] | cell viability [22] [%] | cell viability [23] [%] | cell viability [24] [%] | cell viability [25] [%] | cell viability [26] [%] | cell viability [27] [%] | cell viability [28] [%] | cell viability [29] [%] | cell viability [30] [%] | cell viability [31] [%] | cell viability [32] [%] | cell viability [33] [%]
1 | CCC(=O)NC[C@H](Cc1ccc(OCCc2nc(-c3ccccc3)oc2C)cc1)N/C(C)=C\C(=O)c1ccc(C(F)(F)F)cc1 | 68.8 | 106 | 104 | 88.3 | 91 | 109 | 4.25 | 81.6 | 82.6 | 50.4 | 49.3 | 83.1 | 97.2 | 120 | 105 | 98 | 120 | 4.86 | 83.4 | 99.4 | 51.9 | 67.2 | 60.2 | 97.7 | 113 | 118 | 120 | 109 | 5.19 | 93 | 94.5 | 43.9 | 65.5
2 | CN(CC(=O)N(Cc1ccc(C2CCCCC2)cc1)c1ccc(C(=O)O)c(O)c1)[S+](=O)([O-])c1c(F)c(F)c(F)c(F)c1F | 83.5 | 94.7 | 104 | 95.8 | 103 | 93.7 | 92.7 | 97.7 | 84.8 | 86.5 | 31.1 | 80.8 | 104 | 90 | 93.1 | 88.9 | 101 | 103 | 97.8 | 77.4 | 54.8 | 6.03 | 87 | 91.1 | 93.1 | 89.2 | 103 | 101 | 84.5 | 91.3 | 80.3 | 66.6 | 19.9
3 | CC(C)C[C@H](CC(=O)O)C(=O)N[C@@H](Cc1c[nH]c2ccccc12)C(=O)N[C@@H](C)c1ccccc1 | 96.1 | 100 | 119 | 113 | 106 | 105 | 7.87 | 92.1 | 112 | 73.1 | 54 | 96.1 | 112 | 125 | 116 | 110 | 122 | 8.87 | 86.2 | 96.9 | 65.9 | 54.3 | 77.7 | 90.4 | 97.3 | 113 | 89.6 | 87.2 | 8.39 | 79.4 | 90.2 | 53.7 | 46.4
4 | c1cc2c(cc1[C@H]1OC[C@H]3[C@@H]1CO[C@@H]3c1ccc3c(c1)OCO3)OCO2 | 113 | 105 | 119 | 123 | 126 | 119 | 126 | 110 | 119 | 108 | 92.4 | 124 | 102 | 117 | 129 | 131 | 135 | 117 | 113 | 107 | 100 | 103 | 108 | 115 | 144 | 130 | 113 | 140 | 130 | 132 | 103 | 118 | 86.4
5 | O=C(Nc1cccnc1)N1CCC(Cc2cccc(Oc3ccc(C(F)(F)F)cn3)c2)CC1 | 42 | 94.2 | 83.5 | 95.1 | 117 | 88.7 | 94.3 | 69.6 | 49.3 | 11.2 | 9 | 46.8 | 92.7 | 81.5 | 89.8 | 100 | 88.4 | 64.9 | 57.1 | 35.8 | 6.35 | 4.68 | 37.7 | 91.2 | 81.1 | 78.1 | 98.4 | 91.1 | 86.9 | 58.1 | 34.7 | 14.4 | 8.02
6 | Cc1n[nH]c2ccc(-c3cncc(OC[C@@H](N)Cc4ccccc4)c3)cc12 | 117 | 124 | 117 | 108 | 123 | 98.2 | 71.6 | 56.3 | 14.5 | 5.34 | 4.07 | 105 | 105 | 116 | 110 | 102 | 98 | 92.7 | 64 | 7.19 | 4.27 | 3.39 |  |  |  |  |  |  |  |  |  |  | 
7 | NC[C@H](O)c1ccc(O)c(O)c1 | 93.3 | 102 | 111 | 101 | 95.9 | 98.2 | 92 | 85.4 | 92.8 | 84.5 | 78.4 | 84 | 115 | 102 | 109 | 97.7 | 100 | 97 | 89.5 | 97.5 | 82.8 | 81.5 | 84.9 | 103 | 88.5 | 103 | 104 | 99.1 | 100 | 91.9 | 96.7 | 96.9 | 72.9
8 | CC(C)(Sc1cc(C(C)(C)C)c(O)c(C(C)(C)C)c1)Sc1cc(C(C)(C)C)c(O)c(C(C)(C)C)c1 | 73.2 | 89.8 | 60 | 90.9 | 91.2 | 91.9 | 84.2 | 81.4 | 46.4 | 89.1 | 90 | 90 | 94.6 | 67 | 96.1 | 80.7 | 103 | 91.3 | 84.1 | 49.1 | 95.4 | 105 | 79 | 81.5 | 76.7 | 97.7 | 86.1 | 94.5 | 90.2 | 89.3 | 54.4 | 89.1 | 104
